{"source": "patent US20210032139A1", "about": "“REGULATING A MICROENVIRONMENT OF ANAEROBIC GRANULAR SLUDGE TO PROMOTE ANAEROBIC DIGESTION AND DELAY CALCIFICATION” (GuangXi University, priority 2019, published 2021)", "key": {"[1]": {"tested_on": "anaerobic granular sludge", "experiment": "Laboratory anaerobic serum bottle reactor treating papermaking wastewater with daily C8-HSL addition", "conditions": "after three months; for Methanobactium, Methanosaeta and Methanosarcina in the microbial community: sequencing analysis", "procedure": "First, 50 mL of anaerobic granular sludge and 200 mL of papermaking wastewater collected from a paper mill were placed in a 250 mL anaerobic serum bottle. The bioreactor used in this example involves a 24-hour operation cycle, which has a reaction stage (23.5 h) and a sludge settling stage (0.5 h).\nNext, 50 mL of supernatant is removed from the top of the anaerobic serum bottle, and the same volume of fresh papermaking wastewater with N-octyl […] (C8-HSL) is injected into the bottle through a long syringe at the end of the cycle. The injected wastewater is then domesticated for about a week.\n2 μg C8-HSL standards are added to the reactor every day after domestication.\nThe reactor is treated in a constant temperature magnetic stirring water bath at 38° C.\nWater samples are collected at the beginning and end of each cycle from the reactor, and sludge samples are also collected at the end of each cycle from the reactor. After a total of three months of operation, sludge biomass is collected by centrifugation at 5000×g for 10 minutes and then frozen for further sequencing analysis. […]"}, "[2]": {"tested_on": "anaerobic granular sludge", "experiment": "Paper mill anaerobic reactor (1500 m^3) with C8-HSL added to papermaking wastewater at the regulating tank outlet", "procedure": "In an anaerobic reactor of a paper mill, the reactor is 8 m high and its working volume is 1500 m^3. The papermaking wastewater with high calcium content enters into a regulating tank. The regulating tank has a volume of 1000 m^3. When it is detected that the proportion of microorganism content in the anaerobic granular sludge in the anaerobic reactor is less than 0.6, C8-HSL standard of AHLs type signal molecule is added to the paper-making wastewater at the outlet of the regulating tank end, the quantity of C8-HSL standard is 50 mg per cubic meter of papermaking wastewater. The time interval of signal molecule input is controlled by time controller. The regulating pool is equipped with liquid level transmitter to detect the liquid level to prevent the reactor feed pump from idling. The wastewater that is modulated in the regulating tank is injected into the anaerobic reactor through the wastewater feed pump and treated according to the conventional anaerobic way. In the treatment process, water samples are collected once a month, and sludge samples are collected once half a year. Sludge biomass is collected by centrifugation at 5000×g for 10 minutes, and then frozen for further sequencing analysis."}, "[3]": {"conditions": "2 μg C8-HSL added every day, 38° C."}, "[4]": {"conditions": "20 μg C8-HSL added every day, 38° C."}, "[5]": {"conditions": "30 μg C8-HSL added every day (150 mg/m^3)"}, "[6]": {"conditions": "30 μg C8-HSL added every day (150 mg/m^3), 38° C."}, "[7]": {"conditions": "50 mg C8-HSL per cubic meter of papermaking wastewater, paper mill, after five years"}}}
{"smiles": "CCCCCCCC(=O)N[C@H]1CCOC1=O", "note": "[C8-HSL, N-octyl hypererine lactone]", "values": [{"measurement": "increase of activity of coenzyme F420 compared with the reactor without exogenous signal molecules", "setting": "[1]; 2 μg C8-HSL added every day", "value": 33.5, "unit": "%"}, {"measurement": "increase of removal rate of COD compared with the reactor without exogenous signal molecules", "setting": "[1]; 2 μg C8-HSL added every day", "value": 10.8, "unit": "%"}, {"measurement": "increase of specific methanogenic activity (SMA) compared with the reactor without exogenous signal molecules", "setting": "[1]; 2 μg C8-HSL added every day", "value": 32.4, "unit": "%"}, {"measurement": "chemical oxygen demand (COD) removal rate", "setting": "[1]; [3]", "value": 75, "unit": "%"}, {"measurement": "content of coenzyme F420", "setting": "[1]; [3]", "value": 0.18, "unit": "μmol/gVSS"}, {"measurement": "specific methanogenic activity (SMA)", "setting": "[1]; [3]", "value": "25 mL/(gVSS·h)"}, {"measurement": "Methanobactium, Methanosaeta and Methanosarcina in the microbial community", "setting": "[1]; 2 μg C8-HSL added every day", "value": "enhanced"}, {"measurement": "increase of activity of coenzyme F420 compared with the reactor without exogenous signal molecules", "setting": "[1]; 20 μg C8-HSL added every day", "value": 48.1, "unit": "%"}, {"measurement": "increase of removal rate of COD compared with the reactor without exogenous signal molecules", "setting": "[1]; 20 μg C8-HSL added every day", "value": 18.2, "unit": "%"}, {"measurement": "increase of specific methanogenic activity (SMA) compared with the reactor without exogenous signal molecules", "setting": "[1]; 20 μg C8-HSL added every day", "value": 43, "unit": "%"}, {"measurement": "COD removal rate", "setting": "[1]; [4]", "value": 80, "unit": "%"}, {"measurement": "content of coenzyme F420", "setting": "[1]; [4]", "value": 0.20, "unit": "μmol/gVSS"}, {"measurement": "specific methanogenic activity (SMA)", "setting": "[1]; [4]", "value": "27 mL/(gVSS·h)"}, {"measurement": "Methanobactium, Methanosaeta and Methanosarcina in the microbial community", "setting": "[1]; 20 μg C8-HSL added every day", "value": "enhanced"}, {"measurement": "increase of activity of coenzyme F420 compared with the reactor of adding 100 mg signal molecule per cubic meter of papermaking wastewater", "setting": "[1]; [5]", "value": 1.5, "unit": "%"}, {"measurement": "increase of activity of coenzyme F420 compared with the reactor without exogenous signal molecules", "setting": "[1]; [5]", "value": 50.38, "unit": "%"}, {"measurement": "increase of removal rate of COD compared with the reactor of adding 100 mg signal molecule per cubic meter of papermaking wastewater", "setting": "[1]; [5]", "value": 0.375, "unit": "%"}, {"measurement": "increase of removal rate of COD compared with the reactor without exogenous signal molecules", "setting": "[1]; [5]", "value": 18.63, "unit": "%"}, {"measurement": "increase of specific methanogenic activity (SMA) compared with the reactor of adding 100 mg signal molecule per cubic meter of papermaking wastewater", "setting": "[1]; [5]", "value": 1.85, "unit": "%"}, {"measurement": "increase of specific methanogenic activity (SMA) compared with the reactor without exogenous signal molecules", "setting": "[1]; [5]", "value": 45.66, "unit": "%"}, {"measurement": "COD removal rate", "setting": "[1]; [6]", "value": 80.3, "unit": "%"}, {"measurement": "content of coenzyme F420", "setting": "[1]; [6]", "value": 0.203, "unit": "μmol/gVSS"}, {"measurement": "specific methanogenic activity (SMA)", "setting": "[1]; [6]", "value": "27.5 mL/(gVSS·h)"}, {"measurement": "Methanobactium, Methanosaeta and Methanosarcina in the microbial community", "setting": "[1]; [5]", "value": "enhanced"}, {"measurement": "COD removal rate", "setting": "[2]; [7]", "value": 75, "unit": "%"}, {"measurement": "content of coenzyme F420", "setting": "[2]; [7]", "value": 0.19, "unit": "μmol/gVSS"}, {"measurement": "specific methanogenic activity (SMA)", "setting": "[2]; [7]", "value": "24 mL/(gVSS·h)"}, {"measurement": "calcification of the sludge", "setting": "[2]; 50 mg C8-HSL per cubic meter of papermaking wastewater, paper mill, after five years, without C8-HSL obvious calcification for up to two years", "value": "has not been calcified"}, {"measurement": "Methanobactium, Methanosaeta and Methanosarcina in the microbial community", "setting": "[2]; 50 mg C8-HSL per cubic meter of papermaking wastewater, paper mill, sequencing analysis", "value": "enhanced"}, {"measurement": "effect on delaying calcification", "setting": "[2]; paper mill reactor, compared with before signal molecule addition", "value": "obvious"}]}
